The source of these data is ChEMBL document CHEMBL1131816, “Novel quinolizidine salicylamide influenza fusion inhibitors” (Bioorg Med Chem Lett, 1999).

For one assay, the system named is Influenza A virus. Kind of assay: Cytotoxicity against A/WSN/33 strain (an H1N1 subtype) influenza virus in the plaque reduction assay. The class given is functional. Background: In a plaque reduction assay, fewer plaques than in the control indicate reduced infectivity or spread.
The nature of assay [1]: Inhibitory activity against A/WSN/33 strain (an H1N1 subtype) influenza virus was measured by cell protection assay in MDBK cells. The class given is functional, cell-based, Bos taurus.
The nature of assay [2]: Inhibitory activity against A/WSN/33 strain (an H1N1 subtype) influenza virus was measured by cell protection assay in MDBK cells; Not active. The class given is functional, cell-based, Bos taurus.
Assay [3] in a line: Inhibitory activity against A/WSN/33 strain (an H1N1 subtype) influenza virus was measured by cell protection assay in MDBK cells; Value ranges from 0.2-0.3 ug/mL. The class given is functional, cell-based, Bos taurus.

Converted amounts (≈) assume the structure as drawn.

As a reminder, the CC50 is the concentration giving 50% cytotoxicity. Read a low CC50 as harm at low concentration. As usually defined, the EC50 is the concentration at which the effect is half-maximal. A high value points to weaker potency.

For the molecule `C[C@@H]1CCC[C@@H]2C[C@@H](NC(=O)c3cc(Cl)c(N)cc3O)CCN21`, the half-maximal cytotoxic concentration (CC50) in the assay on Influenza A virus was above 100 µg/mL. Further, the half-maximal effective concentration (EC50) in assay [1] is 1 µg/mL (≈ 2.96 µM).

`C[C@@H]1CCC[C@@H]2C[C@@H](NC(=O)c3cc(Br)ccc3O)CCN21` gave a CC50 with Influenza A virus above 100 µg/mL. Besides, the concentration for a half-maximal effect (EC50) in assay [1] was 0.8 µg/mL (≈ 2.18 µM).

Molecule `C[C@@H]1CCC[C@@H]2C[C@@H](NC(=O)c3cc4ccccc4cc3O)CCN21` displayed a half-maximal cytotoxic concentration (CC50) in the assay on Influenza A virus above 100 µg/mL. Further, the EC50 entry in assay [2] is listed as “Not Active”.

The molecule `CC(=O)Nc1ccccc1C(=O)N[C@H]1CCN2[C@H](CCC[C@H]2C)C1` yielded a cytotoxic concentration (CC50) in the assay on Influenza A virus above 100 µg/mL. For the same molecule, in assay [2], the EC50 entry is recorded as “Not Active”.

In turn, `C[C@@H]1CCC[C@@H]2C[C@@H](NC(=O)c3cc(C(F)(F)F)ccc3O)CCN21` gave a CC50 with Influenza A virus above 100 µg/mL. Besides, the EC50 entry in assay [2] is “Not Active”.

In the assay with Influenza A virus, `C[C@@H]1CCC[C@@H]2C[C@@H](NC(=O)c3c(O)cccc3F)CCN21` returned a 50% cytotoxic concentration (CC50) above 100 µg/mL. The molecule also came in with an EC50 in assay [1] of 10 µg/mL (≈ 32.6 µM).

`C[C@@H]1CCC[C@@H]2C[C@@H](NC(=O)c3cc(Cl)ccc3O)CCN21` had a cytotoxic concentration (CC50) with Influenza A virus above 100 µg/mL. For the same molecule, the concentration for a half-maximal effect (EC50) in assay [1] came to 0.8 µg/mL (≈ 2.48 µM).

In assay [3], `Cc1ccc(O)c(C(=O)N[C@H]2CCN3[C@H](CCC[C@H]3C)C2)c1` showed a half-maximal effective concentration (EC50) of 0.2 µg/mL (≈ 0.661 µM). In addition, in the assay with Influenza A virus, the half-maximal cytotoxic concentration (CC50) stood at 100 µg/mL (≈ 331 µM).

As for `C[C@@H]1CCC[C@@H]2C[C@@H](NC(=O)c3ccccc3N)CCN21`, the half-maximal cytotoxic concentration (CC50) with Influenza A virus was above 100 µg/mL. In assay [1], this molecule yielded a half-maximal effective concentration (EC50) of 5 µg/mL (≈ 17.4 µM).

`COc1ccc(O)c(C(=O)N[C@H]2CCN3[C@H](CCC[C@H]3C)C2)c1` returned a half-maximal cytotoxic concentration (CC50) in the assay with Influenza A virus of 100 µg/mL (≈ 314 µM). Moreover, the EC50 in assay [1] came to 0.6 µg/mL (≈ 1.88 µM).

On to `C[C@@H]1CCC[C@@H]2C[C@@H](NC(=O)c3cc(C(=O)c4ccccc4)ccc3O)CCN21`, for which the CC50 in the assay with Influenza A virus was above 100 µg/mL. For the same molecule, in assay [2], the EC50 result is “Not Active”.

Regarding `C[C@@H]1CCC[C@@H]2C[C@@H](NC(=O)c3cc(Cl)c(N=[N+]=[N-])cc3O)CCN21`, in assay [2], the concentration for a half-maximal effect (EC50) entry is given as “Not Active”.

In turn, `C[C@@H]1CCC[C@@H]2C[C@@H](NC(=O)c3c(O)ccc4ccccc34)CCN21` gave a CC50 with Influenza A virus above 100 µg/mL. Further, the concentration for a half-maximal effect (EC50) entry in assay [2] is listed as “Not Active”.

In the assay with Influenza A virus, `C[C@@H]1CCC[C@@H]2C[C@@H](NC(=O)c3cc(N=[N+]=[N-])ccc3O)CCN21` came in with a half-maximal cytotoxic concentration (CC50) above 100 µg/mL. The molecule also yielded a concentration giving a half-maximal response (EC50) in assay [1] of 0.5 µg/mL (≈ 1.52 µM).

Take `C[C@@H]1CCC[C@@H]2C[C@@H](NC(=O)c3ccccc3O)CCN21`: the cytotoxic concentration (CC50) in the assay on Influenza A virus was above 100 µg/mL. The same molecule yielded an EC50 in assay [1] of 1.6 µg/mL (≈ 5.55 µM).

In the assay with Influenza A virus, `C[C@@H]1CCC[C@@H]2C[C@@H](NC(=O)c3cccc(O)c3O)CCN21` displayed a CC50 of 10 µg/mL (≈ 32.9 µM). Also, the 50% effective concentration (EC50) result in assay [2] is reported as “Not Active”.

On to `C[C@@H]1CCC[C@@H]2C[C@@H](NC(=O)c3cc(Cl)cc(Cl)c3O)CCN21`, for which the CC50 in the assay with Influenza A virus is above 100 µg/mL. In assay [1], the 50% effective concentration (EC50) came out at 10 µg/mL (≈ 28 µM).

Molecule `C[C@@H]1CCC[C@@H]2C[C@@H](NC(=O)c3cc4c(cc3O)C(C)(C)CCC4(C)C)CCN21` showed a CC50 with Influenza A virus of 8 µg/mL (≈ 20.1 µM). The EC50 result in assay [2] is reported as “Not Active”.

For `C=Cc1ccc(O)c(C(=O)N[C@H]2CCN3[C@H](CCC[C@H]3C)C2)c1`, the CC50 with Influenza A virus is above 100 µg/mL. Besides, in assay [1], the concentration for a half-maximal effect (EC50) turned out to be 2 µg/mL (≈ 6.36 µM).

Turning to `C[C@@H]1CCC[C@@H]2C[C@@H](NC(=O)c3cc(C(C)(C)C)ccc3O)CCN21`, the half-maximal cytotoxic concentration (CC50) with Influenza A virus was 50 µg/mL (≈ 145 µM). For the same molecule, the 50% effective concentration (EC50) result in assay [2] is “Not Active”.

As for `C[C@@H]1CCC[C@@H]2C[C@@H](NC(=O)c3cc(O)ccc3O)CCN21`, it took 50 µg/mL (≈ 164 µM) to reach half-maximal cytotoxicity with Influenza A virus (CC50). The concentration for a half-maximal effect (EC50) result in assay [2] was “Not Active”.

As for `C[C@@H]1CCC[C@@H]2C[C@@H](NC(=O)c3ccc(N)c(Cl)c3)CCN21`, in assay [2], the EC50 result is on record as “Not Active”.

On to `Cc1cccc(C(=O)N[C@H]2CCN3[C@H](CCC[C@H]3C)C2)c1O`, for which the CC50 in the assay with Influenza A virus is above 100 µg/mL. In assay [1], this molecule came in with a 50% effective concentration (EC50) of 8 µg/mL (≈ 26.5 µM).

As for `C[C@@H]1CCC[C@@H]2C[C@@H](NC(=O)c3ccc(N)cc3O)CCN21`, the half-maximal cytotoxic concentration (CC50) with Influenza A virus was above 100 µg/mL. Moreover, the 50% effective concentration (EC50) entry in assay [2] is reported as “Not Active”.

For `C[C@@H]1CCC[C@@H]2C[C@@H](NC(=O)c3cc(I)ccc3O)CCN21`, it took 100 µg/mL (≈ 241 µM) to reach half-maximal cytotoxicity in the assay with Influenza A virus (CC50). The EC50 in assay [1] worked out at 1 µg/mL (≈ 2.41 µM).

`C[C@@H]1CCC[C@@H]2C[C@@H](NC(=O)c3cc(F)ccc3O)CCN21` showed a CC50 in the assay with Influenza A virus above 100 µg/mL. For the same molecule, the EC50 in assay [1] stood at 0.4 µg/mL (≈ 1.31 µM).

In the assay with Influenza A virus, `C[C@@H]1CCC[C@@H]2C[C@@H](NC(=O)c3cc(-c4ccccc4)ccc3O)CCN21` came in with a CC50 of 30 µg/mL (≈ 82.3 µM). The EC50 result in assay [2] is reported as “Not Active”.

Consider `Cc1ccc(C(=O)N[C@H]2CCN3[C@H](CCC[C@H]3C)C2)c(O)c1`, for which the CC50 with Influenza A virus was above 100 µg/mL. Besides, in assay [1], the EC50 was found to be 4 µg/mL (≈ 13.2 µM).

Turning to `COc1cc(N)c(Cl)cc1C(=O)N[C@H]1CCN2[C@H](CCC[C@H]2C)C1`, the CC50 in the assay with Influenza A virus is above 100 µg/mL. For the same molecule, the EC50 result in assay [2] was “Not Active”.
